According to US10597398B2, “Suppression and regeneration promoting effect of low molecular weight compound on cancer and fibrosis” (NATIONAL UNIVERSITY CORPORATION TOTTORI UNIVERSITY, priority 2015, dated 2020):

Tested on: liver fibrosis
Test: Carbon tetrachloride-induced fibrosis model mouse (Sirius Red staining)
Format: in vivo, C57BL/6 male mice
Details: carbon tetrachloride 8 weeks, drug for last 4 weeks, IC-2 10.6 mg/kg i.p. 3 times a week, vs vehicle group
Description: To induce anesthesia, 1-mL disposable syringe with a 27-G needle was used to intraperitoneally inject, into a mouse, 1 μL/g body weight of a systemic anesthetic somnopentyl (Kyoritsuseiyaku Corporation, Tokyo).
The liver tissue sample, as so resected, was fixed in 4% paraformaldehyde (Nacalai tesque, Kyoto) at room temperature for 16 h, embedded in paraffin, and sectioned with a microtome to prepare tissue sections, which were then stained by using a Picosirius Red Stain Kit (Polysciences Inc., Warrington, Pa.) in accordance with the attached protocol. After that, a BZ-9000 (KEYENCE CORPORATION, Osaka) was used to take 10 photographs of light-field enlarged images (100×) per tissue sample. The ratio of the red-stained fiber area to the total tissue area of each photographed image was quantified to calculate a fibrosis-positive area ratio.
Seven-week-old C57BL/6 male mice (Japan SLC, Inc., Shizuoka) were subjected to 1-week preparatory rearing and healthy ones were then used. The mice were housed in animal cages at a room temperature of 22±1° C. and a humidity of 50±5% throughout the preparatory rearing and experimental period and were given ad libitum access to food and water.
A microsyringe (ITO CORPORATION, Shizuoka) was used to intraperitoneally administer 0.2 ml/kg of carbon tetrachloride (CCl4; Wako Pure Chemical Industries, Ltd.) 3 times a week for 4, 6, or 8 weeks. […]

With `O=C1C(Cc2ccccc2)N2C(=O)CCN(C(=O)NCc3ccccc3)C2CN1Cc1cccc2ccccc12` (stereo not shown) [IC-2] the “fibrosis area (Sirius Red staining)” value was “decrease more than that of the vehicle group”.
